Experiments:
[1] = molecular target: Casein kinase II subunit alpha (Homo sapiens, UniProt P68400); experiment: Selectivity interaction (KinomeScan (DiscoverX)) EUB0000666a CSNK2A1; conditions: at 10 µM
[2] = molecular target: Serine/threonine-protein kinase Nek6 (Homo sapiens) (UniProt Q9HC98); experiment: Selectivity interaction (SelectScreen profiling (Invitrogen)) EUB0000607a NEK6; conditions: at 2 µM
Insulin receptor = Insulin receptor (Homo sapiens, UniProt P06213); experiment: Selectivity interaction (ProQinase) EUB0000171b INSR; conditions: at 5 µM
[3] = molecular target: T1, Serine/threonine-protein kinase ICK (Homo sapiens) (UniProt Q9UPZ9); experiment: Selectivity interaction (KinomeScan (DiscoverX)) EUB0000045b ICK
T1 sequence (whole entry): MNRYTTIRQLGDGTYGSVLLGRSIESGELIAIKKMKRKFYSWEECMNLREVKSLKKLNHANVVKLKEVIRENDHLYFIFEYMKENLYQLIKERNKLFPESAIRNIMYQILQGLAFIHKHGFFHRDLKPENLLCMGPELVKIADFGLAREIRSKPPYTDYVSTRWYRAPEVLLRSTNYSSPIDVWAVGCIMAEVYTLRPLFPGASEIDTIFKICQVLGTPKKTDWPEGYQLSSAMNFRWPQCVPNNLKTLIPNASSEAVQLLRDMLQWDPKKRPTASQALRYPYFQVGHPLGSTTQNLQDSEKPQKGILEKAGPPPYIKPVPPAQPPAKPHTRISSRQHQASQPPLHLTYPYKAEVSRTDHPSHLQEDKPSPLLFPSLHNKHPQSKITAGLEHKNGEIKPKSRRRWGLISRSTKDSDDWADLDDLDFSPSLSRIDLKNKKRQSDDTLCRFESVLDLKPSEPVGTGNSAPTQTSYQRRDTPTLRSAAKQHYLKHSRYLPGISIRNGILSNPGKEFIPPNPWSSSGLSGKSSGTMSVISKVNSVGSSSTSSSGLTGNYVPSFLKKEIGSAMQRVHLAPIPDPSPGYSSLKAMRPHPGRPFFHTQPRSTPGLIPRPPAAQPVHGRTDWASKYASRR

[4] = molecular target: T2, Mitogen-activated protein kinase kinase kinase 12 (Homo sapiens) (UniProt Q12852); experiment: Selectivity interaction (KinomeScan (DiscoverX)) EUB0001079a MAP3K12; conditions: at 1 µM
T2 sequence (whole entry): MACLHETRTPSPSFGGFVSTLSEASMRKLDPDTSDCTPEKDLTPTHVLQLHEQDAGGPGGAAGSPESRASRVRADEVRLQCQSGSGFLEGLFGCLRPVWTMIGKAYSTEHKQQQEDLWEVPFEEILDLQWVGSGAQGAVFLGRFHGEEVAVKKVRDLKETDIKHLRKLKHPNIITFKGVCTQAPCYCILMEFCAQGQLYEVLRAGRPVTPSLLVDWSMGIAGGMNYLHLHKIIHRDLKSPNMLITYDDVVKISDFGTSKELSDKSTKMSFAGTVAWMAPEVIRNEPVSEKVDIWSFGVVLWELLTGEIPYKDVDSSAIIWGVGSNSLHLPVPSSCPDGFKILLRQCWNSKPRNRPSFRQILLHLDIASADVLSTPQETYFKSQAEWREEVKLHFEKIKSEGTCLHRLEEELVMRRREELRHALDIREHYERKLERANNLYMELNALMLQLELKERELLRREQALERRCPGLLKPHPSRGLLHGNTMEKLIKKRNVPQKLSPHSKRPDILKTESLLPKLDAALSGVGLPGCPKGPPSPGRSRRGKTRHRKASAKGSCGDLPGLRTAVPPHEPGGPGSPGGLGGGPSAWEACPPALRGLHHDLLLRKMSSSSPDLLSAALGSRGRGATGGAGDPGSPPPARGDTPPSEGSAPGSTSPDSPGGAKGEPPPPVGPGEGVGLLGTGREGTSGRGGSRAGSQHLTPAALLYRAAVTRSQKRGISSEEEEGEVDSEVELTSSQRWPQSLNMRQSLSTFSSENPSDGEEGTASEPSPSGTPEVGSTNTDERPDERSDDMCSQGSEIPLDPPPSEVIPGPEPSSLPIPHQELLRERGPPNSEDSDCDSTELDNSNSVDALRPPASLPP

[5] = molecular target: Phosphatidylinositol 4-phosphate 3-kinase C2 domain-containing subunit beta (Homo sapiens) (UniProt O00750); experiment: Selectivity interaction (KinomeScan (DiscoverX)) EUB0001079a PIK3C2B; conditions: at 1 µM
[6] = molecular target: T3, Ephrin type-A receptor 8 (Homo sapiens) (UniProt P29322); experiment: Selectivity interaction (KinomeScan (DiscoverX)) EUB0000229b EPHA8; conditions: at 10 µM
T3 sequence (whole entry): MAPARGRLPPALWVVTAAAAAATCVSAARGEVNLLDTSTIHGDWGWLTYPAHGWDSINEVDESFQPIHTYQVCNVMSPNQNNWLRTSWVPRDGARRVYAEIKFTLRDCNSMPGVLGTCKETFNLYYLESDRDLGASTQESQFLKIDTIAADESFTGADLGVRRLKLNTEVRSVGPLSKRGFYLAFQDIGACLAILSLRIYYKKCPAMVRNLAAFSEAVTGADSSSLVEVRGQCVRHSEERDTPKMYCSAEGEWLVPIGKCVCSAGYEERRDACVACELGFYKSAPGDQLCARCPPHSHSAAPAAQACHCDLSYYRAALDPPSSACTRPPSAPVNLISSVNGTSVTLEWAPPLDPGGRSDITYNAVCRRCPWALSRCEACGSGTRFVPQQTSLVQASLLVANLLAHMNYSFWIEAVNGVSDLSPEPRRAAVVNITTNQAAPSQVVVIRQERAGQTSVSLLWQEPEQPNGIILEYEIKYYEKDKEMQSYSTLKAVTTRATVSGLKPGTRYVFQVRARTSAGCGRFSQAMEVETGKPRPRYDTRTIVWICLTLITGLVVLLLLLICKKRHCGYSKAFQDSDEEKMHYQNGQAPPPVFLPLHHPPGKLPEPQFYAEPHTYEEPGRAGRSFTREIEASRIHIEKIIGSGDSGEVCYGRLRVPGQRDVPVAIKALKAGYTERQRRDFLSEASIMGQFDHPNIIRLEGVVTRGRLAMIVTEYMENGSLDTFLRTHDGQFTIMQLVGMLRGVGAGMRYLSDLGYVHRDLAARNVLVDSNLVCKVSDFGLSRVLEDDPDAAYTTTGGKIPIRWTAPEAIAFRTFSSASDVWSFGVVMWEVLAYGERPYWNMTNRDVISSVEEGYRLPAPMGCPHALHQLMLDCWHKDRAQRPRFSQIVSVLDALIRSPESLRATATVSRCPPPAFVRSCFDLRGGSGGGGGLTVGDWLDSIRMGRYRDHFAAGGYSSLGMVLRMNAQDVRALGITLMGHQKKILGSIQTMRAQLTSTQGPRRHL

[7] = molecular target: Serine/threonine-protein kinase 16 (Homo sapiens, UniProt O75716); experiment: Selectivity interaction (KinomeScan (DiscoverX)) EUB0000092b STK16; conditions: at 10 µM
[8] = tested on: Tyrosine-protein kinase ABL1 (Homo sapiens), P00519 [H396P]; conditions: at 10 µM

Chain of Phosphatidylinositol 4-phosphate 3-kinase C2 domain-containing subunit beta (Homo sapiens) (O00750 whole entry, the tested form may be a part): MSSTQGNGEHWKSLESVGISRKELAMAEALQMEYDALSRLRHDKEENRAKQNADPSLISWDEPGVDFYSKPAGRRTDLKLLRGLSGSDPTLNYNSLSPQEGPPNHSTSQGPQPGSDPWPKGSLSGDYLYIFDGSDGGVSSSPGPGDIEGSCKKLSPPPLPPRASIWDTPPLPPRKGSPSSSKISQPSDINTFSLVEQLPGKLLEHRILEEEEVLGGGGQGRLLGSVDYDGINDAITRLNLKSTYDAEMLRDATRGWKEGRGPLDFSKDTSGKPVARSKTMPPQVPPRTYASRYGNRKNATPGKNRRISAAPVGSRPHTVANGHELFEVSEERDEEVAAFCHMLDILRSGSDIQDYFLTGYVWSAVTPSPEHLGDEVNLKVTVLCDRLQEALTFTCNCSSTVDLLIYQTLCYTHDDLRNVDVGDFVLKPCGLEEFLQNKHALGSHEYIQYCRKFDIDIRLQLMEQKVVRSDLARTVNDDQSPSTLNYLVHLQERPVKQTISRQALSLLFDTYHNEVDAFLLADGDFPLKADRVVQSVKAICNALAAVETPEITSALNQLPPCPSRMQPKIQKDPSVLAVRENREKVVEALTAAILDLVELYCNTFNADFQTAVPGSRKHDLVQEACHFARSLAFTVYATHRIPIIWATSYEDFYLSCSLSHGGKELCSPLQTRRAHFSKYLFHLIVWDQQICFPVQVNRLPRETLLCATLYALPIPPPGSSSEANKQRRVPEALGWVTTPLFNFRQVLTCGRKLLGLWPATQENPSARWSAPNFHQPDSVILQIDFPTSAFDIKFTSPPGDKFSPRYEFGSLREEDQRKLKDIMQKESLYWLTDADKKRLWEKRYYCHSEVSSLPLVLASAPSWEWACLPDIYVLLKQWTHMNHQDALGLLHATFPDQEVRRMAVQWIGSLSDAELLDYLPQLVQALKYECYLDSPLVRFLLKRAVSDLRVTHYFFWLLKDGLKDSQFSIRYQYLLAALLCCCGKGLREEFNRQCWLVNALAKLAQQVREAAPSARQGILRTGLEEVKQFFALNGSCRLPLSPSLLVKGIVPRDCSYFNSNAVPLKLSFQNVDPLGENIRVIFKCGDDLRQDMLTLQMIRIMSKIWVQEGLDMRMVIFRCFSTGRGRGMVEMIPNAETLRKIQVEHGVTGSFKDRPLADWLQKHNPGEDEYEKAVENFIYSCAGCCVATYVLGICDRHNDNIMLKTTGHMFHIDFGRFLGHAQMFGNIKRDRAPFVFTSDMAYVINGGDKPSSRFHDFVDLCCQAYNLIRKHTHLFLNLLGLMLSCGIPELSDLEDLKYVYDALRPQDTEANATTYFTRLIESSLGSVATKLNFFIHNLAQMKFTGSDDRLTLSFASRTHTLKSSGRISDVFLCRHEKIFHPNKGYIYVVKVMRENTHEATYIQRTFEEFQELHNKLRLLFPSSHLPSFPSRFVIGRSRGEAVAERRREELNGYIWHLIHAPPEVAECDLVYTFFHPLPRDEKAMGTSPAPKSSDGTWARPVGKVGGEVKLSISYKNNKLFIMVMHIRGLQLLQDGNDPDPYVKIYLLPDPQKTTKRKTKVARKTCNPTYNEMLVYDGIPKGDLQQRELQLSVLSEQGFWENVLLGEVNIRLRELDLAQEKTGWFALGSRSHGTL
Chain of Serine/threonine-protein kinase Nek6 (Homo sapiens) (Q9HC98 whole entry): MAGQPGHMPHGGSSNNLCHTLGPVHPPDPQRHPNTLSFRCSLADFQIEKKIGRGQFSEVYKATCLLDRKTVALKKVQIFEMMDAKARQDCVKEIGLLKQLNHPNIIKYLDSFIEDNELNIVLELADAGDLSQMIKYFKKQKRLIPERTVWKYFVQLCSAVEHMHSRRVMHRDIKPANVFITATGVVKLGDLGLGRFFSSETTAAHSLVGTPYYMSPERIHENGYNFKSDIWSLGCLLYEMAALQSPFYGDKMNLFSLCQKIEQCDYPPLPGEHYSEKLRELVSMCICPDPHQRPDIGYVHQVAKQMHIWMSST
Chain of Insulin receptor (P06213 28-758 limits assumed): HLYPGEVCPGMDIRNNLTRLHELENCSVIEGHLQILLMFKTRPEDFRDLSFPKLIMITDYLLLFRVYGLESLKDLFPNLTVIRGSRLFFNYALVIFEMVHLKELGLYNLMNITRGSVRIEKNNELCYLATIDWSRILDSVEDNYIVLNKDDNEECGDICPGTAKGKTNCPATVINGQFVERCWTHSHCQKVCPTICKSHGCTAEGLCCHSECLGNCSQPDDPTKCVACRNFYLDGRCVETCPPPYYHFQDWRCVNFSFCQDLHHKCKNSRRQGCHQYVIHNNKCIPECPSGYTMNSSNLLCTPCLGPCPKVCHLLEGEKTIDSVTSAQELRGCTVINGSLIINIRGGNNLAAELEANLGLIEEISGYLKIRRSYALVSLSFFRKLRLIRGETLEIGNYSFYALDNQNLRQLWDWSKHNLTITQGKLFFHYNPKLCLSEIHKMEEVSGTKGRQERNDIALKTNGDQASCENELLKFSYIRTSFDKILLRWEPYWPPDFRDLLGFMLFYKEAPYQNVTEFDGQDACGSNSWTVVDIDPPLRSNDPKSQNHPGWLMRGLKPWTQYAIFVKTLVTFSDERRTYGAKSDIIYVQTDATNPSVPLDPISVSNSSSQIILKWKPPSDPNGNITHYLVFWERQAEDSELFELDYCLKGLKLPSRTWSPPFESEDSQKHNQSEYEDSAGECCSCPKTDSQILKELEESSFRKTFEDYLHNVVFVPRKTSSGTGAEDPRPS
Chain of Insulin receptor (P06213 763-1382 limits assumed): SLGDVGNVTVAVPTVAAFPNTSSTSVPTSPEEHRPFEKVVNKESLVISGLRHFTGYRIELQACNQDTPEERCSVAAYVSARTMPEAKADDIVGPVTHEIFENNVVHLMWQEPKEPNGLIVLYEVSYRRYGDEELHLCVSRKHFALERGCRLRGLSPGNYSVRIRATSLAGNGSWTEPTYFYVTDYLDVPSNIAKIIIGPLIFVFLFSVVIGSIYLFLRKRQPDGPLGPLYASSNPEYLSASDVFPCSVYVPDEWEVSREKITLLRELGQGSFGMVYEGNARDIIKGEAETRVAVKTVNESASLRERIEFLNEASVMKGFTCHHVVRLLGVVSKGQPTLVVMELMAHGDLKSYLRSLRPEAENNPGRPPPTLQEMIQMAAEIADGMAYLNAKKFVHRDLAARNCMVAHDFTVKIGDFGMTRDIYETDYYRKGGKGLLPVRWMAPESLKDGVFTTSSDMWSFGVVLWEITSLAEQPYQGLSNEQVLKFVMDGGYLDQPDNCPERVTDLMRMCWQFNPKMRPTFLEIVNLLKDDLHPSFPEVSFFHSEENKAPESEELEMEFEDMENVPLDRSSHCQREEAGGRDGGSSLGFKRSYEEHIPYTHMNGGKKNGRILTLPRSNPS
Chain of Serine/threonine-protein kinase 16 (O75716 whole entry): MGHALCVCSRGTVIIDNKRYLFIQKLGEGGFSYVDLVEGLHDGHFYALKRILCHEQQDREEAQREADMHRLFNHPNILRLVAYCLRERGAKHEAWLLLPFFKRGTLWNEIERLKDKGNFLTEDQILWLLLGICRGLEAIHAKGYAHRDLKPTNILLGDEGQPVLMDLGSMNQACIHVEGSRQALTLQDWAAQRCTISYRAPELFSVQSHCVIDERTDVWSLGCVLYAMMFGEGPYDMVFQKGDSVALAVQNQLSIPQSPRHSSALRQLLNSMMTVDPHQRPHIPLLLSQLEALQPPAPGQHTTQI
Chain of Casein kinase II subunit alpha (P68400 whole entry, looked up): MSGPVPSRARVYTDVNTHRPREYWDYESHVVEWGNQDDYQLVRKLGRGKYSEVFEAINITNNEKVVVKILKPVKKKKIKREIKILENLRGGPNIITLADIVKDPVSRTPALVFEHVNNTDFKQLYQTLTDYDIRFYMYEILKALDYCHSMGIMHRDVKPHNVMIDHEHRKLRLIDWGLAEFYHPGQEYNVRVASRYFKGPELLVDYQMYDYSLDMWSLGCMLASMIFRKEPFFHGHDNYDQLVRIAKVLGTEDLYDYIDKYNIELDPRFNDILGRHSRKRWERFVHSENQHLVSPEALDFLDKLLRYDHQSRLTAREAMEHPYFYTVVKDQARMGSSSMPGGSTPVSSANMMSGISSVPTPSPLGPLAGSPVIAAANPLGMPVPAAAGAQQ

Work on O=C(NOC[C@H](O)CO)c1ccc(F)c(F)c1Nc1ccc(I)cc1F yielded a % of control [1] of 77%.

CNC(=O)Nc1ccc(-c2nc(N3CC4CCC(C3)O4)c3cnn(C4CCC5(CC4)OCCO5)c3n2)cc1 showed a % of inhibition [2] of 12%.

For C=CC(=O)Nc1cccc(C(=O)Nc2ccc(Nc3cc(-c4[nH]c(SC)nc4C)ccn3)cc2)c1, the % of control (Insulin receptor) was 72%.

Work on C=CC(=O)Nc1cc(-n2c(=O)ccc3cnc4ccc(-c5ccc(NS(C)(=O)=O)cc5)cc4c32)ccc1C yielded a % of control ([3]; at 1 µM) of 100% and a % of control ([3]; at 10 µM) of 100%.

With Nc1cnc(N2CCc3cc(S(=O)(=O)Nc4c(F)cc(Cl)cc4F)cc(N4CCCC4=O)c32)nc1 [TP-020n] the % of control [4] was 100% and the % of control [5] was 83%.

COc1cc(N(C)c2ccnc3ccc(C(F)(F)F)cc23)cc(OC)c1OC gave a % binding [6] of 94%.

Compound CCC(=O)N1CCN(c2ccc(-n3c(=O)ccc4cnc5ccc(-c6cnc7ccccc7c6)cc5c43)cc2C(F)(F)F)CC1 has a % of control [7] of 18%.

Cc1cc([C@@H](C)Nc2ccccc2C(=O)O)c2nc(N3CCOCC3)cc(=O)n2c1 [AZD-6482] showed a % of control [8] of 87%.
